Results from paper PMC11947619, “Molecular mechanism of Mad2 conformational conversion promoted by the Mad2‐interaction motif of Cdc20” (Protein Science : A Publication of the Protein Society, 2025).
Residues, ends and D or L forms follow the SMILES beside them.

Biological target: T1, Mad2^∆β7/β8 (Homo sapiens, UniProt Q13257)
T1 construct: a Mad2 variant with a deleted β7/β8 hairpin (Mad2^∆β7/β8: residues 1–165); His6-DoubleStrep-TEV (N); made in house
Experiment: NMR titration (CSP) of Cdc20^MIM-123-152 into Mad2^∆β7/β8
Format: binding
Conditions: 25°C
Procedure: FIGURE 3 Mad2 conversion rates with different Cdc20^MIM peptides. (a) Schematic of human Cdc20. Box1: Box1 motif; C1: C‐box motif; K1: KEN box motif; MIM: Mad2‐interacting motif, residues 123–137; WD40: WD40 domain, residues 182–480; IR: IR tail. (b) Mad2 conversion in the presence of different Cdc20^MIM peptides. Mad2 conversion was traced at 25°C and the changes in the first 30 min are shown. A black tick indicates where conversion is considered complete. NMR data for O‐Mad2^R133A with Cdc20^MIM‐111‐138 shown for comparison are from Fischer et al. ([2022]). (c) The Cdc20^MIM‐138‐152‐binding site was identified by comparing the spectra of C‐Mad2:Cdc20^MIM‐123‐137 with C‐Mad2:Cdc20^MIM‐123‐152 (boxed in b) and analyzing their CSPs (Figure S8e,f). The Cdc20^MIM‐138‐152‐binding site (blue) is mapped onto the structure of C‐Mad2:Cdc20 from the cryo‐EM structure of the APC/C:MCC complex (PDB 6TLJ) (Alfieri et al., [2016], Alfieri et al., [2020]). The O‐Mad2 structural model is superimposed onto the C‐Mad2 structure for comparison. Cdc20 residues 138–152 are in yellow and residues 126–138 are in green. The β7/β8 hairpin in O‐Mad2 (red) blocks both the binding sites for Cdc20 residues 126–138 and residues 138–152. (d) As in c except the β7/β8 hairpin in O‐Mad2 is removed to expose the Cdc20 binding sites. […] (f) Cdc20^MIM‐123‐152 was titrated into Mad2^∆β7/β8 and its binding was analyzed by NMR. […]

interaction with Mad2^∆β7/β8, in words (NMR CSPs on addition of peptide): weak interaction
Kd (NMR titration, fit of resonance with largest CSP vs ligand concentration, 20 mM HEPES pH 7.0, 100 mM NaCl, 1 mM TCEP, 5% D2O, read-out: KD (estimated)): > 700 µM
SMILES: CC[C@H](C)[C@H](NC(=O)[C@H](CCCCN)NC(=O)[C@H](C)NC(=O)[C@H](CCC(=O)O)NC(=O)[C@H](CCC(=O)O)NC(=O)[C@@H](NC(=O)[C@H](CC(=O)O)NC(=O)[C@@H](N)Cc1ccccc1)C(C)C)C(=O)N[C@@H](CC(C)C)C(=O)N[C@@H](CCCNC(=N)N)C(=O)N[C@@H](CC(C)C)C(=O)N[C@@H](CO)C(=O)NCC(=O)N[C@@H](CCCCN)C(=O)N1CCC[C@H]1C(=O)N[C@@H](CCC(N)=O)C(=O)N[C@@H](CC(N)=O)C(=O)N[C@@H](C)C(=O)N1CCC[C@H]1C(=O)N[C@@H](CCC(=O)O)C(=O)NCC(=O)N[C@@H](Cc1ccc(O)cc1)C(=O)N[C@@H](CCC(N)=O)C(=O)N[C@@H](CC(N)=O)C(=O)N[C@@H](CCCNC(=N)N)C(=O)N[C@@H](CC(C)C)C(=O)N[C@@H](CCCCN)C(=O)N[C@H](C(=O)N[C@@H](CC(C)C)C(=O)N[C@@H](Cc1ccc(O)cc1)C(=O)O)C(C)C [Cdc20^MIM‐123‐152] (H-FDVEEAKILRLSGKPQNAPEGYQNRLKVLY-OH; N-terminus and C-terminus assumed)
